The record followed here is US10239849B2 (Merck Sharp & Dohme Corp., priority 2015, dated 2019).

Experiment [1] deals with T1, glutathione-S-transferase (GST) tagged LXRbeta LBD (ligand binding domain) (Homo sapiens, UniProt P55055).
T1 construct: purchased Invitrogen pv4658.pps
T1 sequence (P55055 222-460 limits assumed): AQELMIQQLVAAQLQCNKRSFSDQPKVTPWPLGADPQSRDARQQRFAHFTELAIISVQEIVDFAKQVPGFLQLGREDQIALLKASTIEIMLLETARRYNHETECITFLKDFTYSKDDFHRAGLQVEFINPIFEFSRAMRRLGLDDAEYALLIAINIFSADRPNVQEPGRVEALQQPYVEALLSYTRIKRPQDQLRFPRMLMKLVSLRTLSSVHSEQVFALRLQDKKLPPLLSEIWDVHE
As to the kind of experiment: LanthaScreen TR-FRET Liver X Receptor Coactivator Assay, LXR beta-LBD. It counts as biochemical. As to conditions: for Emax: efficacy in relation to reference dual agonist T1317, read-out: LXR beta activity at max dose (%) (Emax); for EC50: potency (Inflection Point) of co-activator recruitment, TR-FRET, read-out: LXR beta IP. A digest of the protocol:
(§1)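 TR-FRET read-out of coactivator recruitment: fluorescein-coactivator peptide plus Tb-anti-GST antibody added to LBD preincubated with compound; incubated at RT before reading.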
For orientation: Time-resolved FRET reads energy transfer from a long-lived donor to a nearby acceptor.

The target of experiment [2] is T2, glutathione-S-transferase (GST) tagged LXRalpha LBD (ligand binding domain) (Homo sapiens, UniProt Q13133).
T2 construct: purchased Invitrogen pv4655
T2 sequence (Q13133 209-447 limits assumed): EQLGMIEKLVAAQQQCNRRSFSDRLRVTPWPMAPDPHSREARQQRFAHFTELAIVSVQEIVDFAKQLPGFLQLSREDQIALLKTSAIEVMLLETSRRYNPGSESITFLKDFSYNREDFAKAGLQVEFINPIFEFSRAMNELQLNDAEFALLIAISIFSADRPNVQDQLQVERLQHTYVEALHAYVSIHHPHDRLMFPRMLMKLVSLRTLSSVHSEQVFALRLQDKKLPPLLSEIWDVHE
As to the kind of experiment: LanthaScreen TR-FRET Liver X Receptor Coactivator Assay, LXR alpha-LBD. It counts as biochemical. The note with it: for Emax: efficacy in relation to reference dual agonist T1317, read-out: LXR alpha activity at max dose (%) (Emax); for EC50: read-out: LXR alpha IP. In a few lines: as §1

[3] abbreviates: potency (Inflection Point) of co-activator recruitment, TR-FRET.

For `CC1CN(c2ncc(-c3ccc(C(=O)N(C)C)c(Cl)c3)cc2C#N)CCN1C(=O)OC(C)(C)C` (stereo not drawn) [Example 8-6, tert-butyl 4-{5-[3-chloro-4-(dimethylcarbamoyl)phenyl]-3-cyanopyridin-2-yl}-2-methylpiperazine-1-carboxylate], the maximal effect (Emax) was determined as 78% in experiment [1] and 68% in experiment [2]. For the same molecule, the EC50 in experiment [1] stood at 57 nM; in experiment [2] (setting [3]) it was 12700 nM.

Take `CN(C)C(=O)c1ccc(-c2cnc(N3CCN(C(=O)Cc4ccccc4)CC3)c(C#N)c2)cc1Cl` [Example 2-7]: the Emax came to 102% in experiment [1] and 54% in experiment [2]. The EC50 in experiment [1] stood at 50 nM; in experiment [2] (setting [3]), 6790 nM.

Take `CN(C)C(=O)c1ccc(-c2cnc(N3CCN(C(=O)OCc4cncs4)CC3)c(C#N)c2)cc1Cl` [Example 3-3, 1,3-thiazol-5-ylmethyl 4-{5-[3-chloro-4-(dimethylcarbamoyl)phenyl]-3-cyanopyridin-2-yl}piperazine-1-carboxylate]: the Emax was 62% in experiment [1] and 42% in experiment [2]. In addition, the EC50 in experiment [1] stood at 217 nM; in experiment [2] (setting [3]), 19800 nM.

For the molecule `CN(C)C(=O)c1c(Cl)cc(-c2cnc(N3CC4CCC(C3)N4C(=O)OC(C)(C)C)c(C#N)c2)cc1Cl` [Example 7-3, tert-butyl 3-(3-cyano-5-(3,5-dichloro-4-(dimethylcarbamoyl)phenyl)pyridin-2-yl)-3,8-diazabicyclo[3.2.1]octane-8-carboxylate], the results for the maximal effect (Emax) in experiment [1] and in experiment [2] were 67% and 21%, respectively. Further, the EC50 in experiment [1] is 13 nM; in experiment [2] (setting [3]) it was 151 nM.

As to `CN(C)C(=O)c1ccc(-c2cnc(N3CCN(S(=O)(=O)c4cccs4)CC3)c(C#N)c2)cc1Cl` [Example 1-6, 2-chloro-4-{5-cyano-6-[4-(thiophen-2-ylsulfonyl)piperazin-1-yl]pyridin-3-yl}-N,N-dimethylbenzamide], the Emax was determined as 77% in experiment [1] and 23% in experiment [2]. Besides, the EC50 in experiment [1] turned out to be 31 nM; in experiment [2] (setting [3]) it was 6840 nM.

Consider `CC(C)(C)OC(=O)N1CCN(c2ncc(-c3ccc(C(=O)N(CCO)Cc4ccccc4)c(Cl)c3)cc2C#N)CC1` [Example 5-30, tert-butyl 4-(5-{4-[benzyl(2-hydroxyethyl)carbamoyl]-3-chlorophenyl}-3-cyanopyridin-2-yl)piperazine-1-carboxylate], for which the maximal effect (Emax) was 73% in experiment [1] and 57% in experiment [2]. In addition, the EC50 in experiment [1] came out at 1190 nM; in experiment [2] (setting [3]), 10000 nM.

`CN(C)C(=O)c1ccc(-c2cc(Cl)c(N3CCN(C(=O)c4ccccc4Cl)CC3)c(Cl)c2)cc1Cl` [Example 4-6, 3,3′,5′-trichloro-4′-{4-[(2-chlorophenyl)carbonyl]piperazin-1-yl}-N,N-dimethylbiphenyl-4-carboxamide]: the Emax in experiment [1] was determined as 39%; in experiment [2], 16%. Also, the EC50 in experiment [1] stood at 188 nM; in experiment [2] (setting [3]), 1600 nM.

With `CN(C)C(=O)c1ccc(-c2cnc(N3CCN(C(=O)C4(c5ccccc5)CCCC4)CC3)c(C#N)c2)cc1Cl` [Example 2-26, 2-chloro-4-(5-cyano-6-{4-[(1-phenylcyclopentyl)carbonyl]piperazin-1-yl}pyridin-3-yl)-N,N-dimethylbenzamide], the maximum response (Emax) in experiment [1] was found to be 84%; in experiment [2] it was 25%. In addition, the values for the EC50 in experiment [1] and in experiment [2] (setting [3]) were 43 nM and 1990 nM, respectively.

In the case of `CN(C)C(=O)c1ccc(-c2cnc(N3CCN(S(=O)(=O)c4ccccc4F)CC3)c(C#N)c2)cc1Cl` [Example 1-8, 2-chloro-4-(5-cyano-6-{4-[(2-fluorophenyl)sulfonyl]piperazin-1-yl}pyridin-3-yl)-N,N-dimethylbenzamide], the maximum response (Emax) in experiment [1] was found to be 89%; in experiment [2], 34%. For the same molecule, the EC50 in experiment [1] worked out at 17 nM; in experiment [2] (setting [3]), 12100 nM.

Regarding `CN(C)C(=O)c1ccc(-c2ccc(N3CCN(C(=O)OC(C)(C)C)CC3)c(C#N)c2)cc1Cl` [Example 8-15, tert-butyl 4-[3′-chloro-3-cyano-4′-(dimethylcarbamoyl)biphenyl-4-yl]piperazine-1-carboxylate], the maximal effect (Emax) in experiment [1] turned out to be 81%; in experiment [2], 54%. Besides, the EC50 in experiment [1] came to 177 nM; in experiment [2] (setting [3]), 3890 nM.

`CN(C)C(=O)c1ccc(-c2cnc(N3CCN(C(=O)OCC4CC4(C)C)CC3)c(C#N)c2)cc1Cl` (stereo not drawn) [Example 3-13, (2,2-dimethylcyclopropyl)methyl 4-{5-[3-chloro-4-(dimethylcarbamoyl)phenyl]-3-cyanopyridin-2-yl}piperazine-1-carboxylate]: the Emax in experiment [1] was determined as 31%; in experiment [2], 16%. The EC50 in experiment [1] is 105 nM. In addition, in experiment [2] (setting [3]), the “LXR alpha IP (nM)” value was “No IP”.

For the molecule `CN(C)C(=O)c1ccc(-c2cnc(N3CCN(C(=O)Cc4c[nH]c5ccccc45)CC3)c(C#N)c2)cc1Cl` [Example 2-22, 2-chloro-4-{5-cyano-6-[4-(1H-indol-3-ylacetyl)piperazin-1-yl]pyridin-3-yl}-N,N-dimethylbenzamide], the maximum response (Emax) is 83% in experiment [1] and 54% in experiment [2]. Moreover, the EC50 in experiment [1] was 186 nM; in experiment [2] (setting [3]) it was 30000 nM.

Regarding `CN(CC(O)c1ccc(O)cc1)C(=O)c1ccc(-c2cnc(N3CCN(C(=O)OC(C)(C)C)CC3)c(C#N)c2)cc1Cl` (stereo not drawn) [Example 5-31, tert-butyl 4-[5-(3-chloro-4-{[2-hydroxy-2-(4-hydroxyphenyl)ethyl](methyl)carbamoyl}phenyl)-3-cyanopyridin-2-yl]piperazine-1-carboxylate], the Emax in experiment [1] came out at 67%; in experiment [2] it was 27%. Also, the results for the EC50 in experiment [1] and in experiment [2] (setting [3]) were 1860 nM and 8530 nM, respectively.

As for `CC(C)(C)OC(=O)N1CCN(c2ncc(-c3ccc(C(=O)N4CCCC4)c(Cl)c3)cc2C#N)CC1` [Example 5-9, tert-butyl 4-{5-[3-chloro-4-(pyrrolidin-1-ylcarbonyl)phenyl]-3-cyanopyridin-2-yl}piperazine-1-carboxylate], the Emax in experiment [1] is 71%; in experiment [2], 48%. For the same molecule, the EC50 is 274 nM in experiment [1] and 14300 nM in experiment [2] (setting [3]).

On to `CC(C)(C)OC(=O)N1CCN(c2ncc(-c3ccc(C(=O)N4CCCCC4)c(Cl)c3)cc2C#N)CC1` [Example 5-11, tert-butyl 4-{5-[3-chloro-4-(piperidin-1-ylcarbonyl)phenyl]-3-cyanopyridin-2-yl}piperazine-1-carboxylate], for which the Emax in experiment [1] turned out to be 59%; in experiment [2] it was 89%. For the same molecule, the figures for the EC50 in experiment [1] and in experiment [2] (setting [3]) were 300 nM and 11700 nM, respectively.

Regarding `CN(C)C(=O)c1ccc(-c2cnc(N3CCN(C(=O)[C@@](O)(c4ccccc4)C(F)(F)F)CC3)c(C#N)c2)cc1Cl` [Example 2-31, 2-chloro-4-(5-cyano-6-{4-[(2S)-3,3,3-trifluoro-2-hydroxy-2-phenylpropanoyl]piperazin-1-yl}pyridin-3-yl)-N,N-dimethylbenzamide], the figures for the Emax in experiment [1] and in experiment [2] were 68% and 12%, respectively. Also, the EC50 in experiment [1] was determined as 307 nM; in experiment [2] (setting [3]), 7290 nM.

Turning to `C=Cc1cc(-c2ccc(C(=O)N(C)C)c(Cl)c2)cnc1N1CCN(C(=O)OC(C)(C)C)CC1` [Example 9-2, tert-butyl 4-{5-[3-chloro-4-(dimethylcarbamoyl)phenyl]-3-ethenylpyridin-2-yl}piperazine-1-carboxylate], the maximal response (Emax) was found to be 49% in experiment [1] and 38% in experiment [2]. In addition, the EC50 was 161 nM in experiment [1] and 3440 nM in experiment [2] (setting [3]).

`CON(C)C(=O)c1ccc(-c2cnc(N3CCN(C(=O)OC(C)(C)C)CC3)c(C#N)c2)cc1Cl` [Example 5-7, tert-butyl 4-(5-{3-chloro-4-[methoxy(methyl)carbamoyl]phenyl}-3-cyanopyridin-2-yl)piperazine-1-carboxylate]: the Emax was 69% in experiment [1] and 39% in experiment [2]. The EC50 in experiment [1] was 82 nM; in experiment [2] (setting [3]), 2660 nM.

For the molecule `CCC(C)(C)C(=O)N1CCN(c2ncc(-c3ccc(C(=O)N(C)C)c(Cl)c3)cc2C#N)CC1` [Example 2-5, 2-chloro-4-{5-cyano-6-[4-(2,2-dimethylbutanoyl)piperazin-1-yl]pyridin-3-yl}-N,N-dimethylbenzamide], the Emax stood at 97% in experiment [1] and 62% in experiment [2]. Besides, the EC50 in experiment [1] stood at 109 nM; in experiment [2] (setting [3]) it was 11100 nM.

Turning to `CN(C)C(=O)c1ccc(-c2ccc(N3CC4CCC3CN4C(=O)OC(C)(C)C)cc2)cc1Cl` (stereo not drawn) [Example 8-4, tert-butyl 5-[3′-chloro-4′-(dimethylcarbamoyl)biphenyl-4-yl]-2,5-diazabicyclo[2.2.2]octane-2-carboxylate], the Emax in experiment [1] was 78%; in experiment [2], 73%. Moreover, the EC50 in experiment [1] was 32 nM; in experiment [2] (setting [3]) it was 1500 nM.

As for `C#Cc1cc(-c2ccc(C(=O)N(C)C)c(Cl)c2)cnc1N1CCN(C(=O)OC(C)(C)C)CC1` [Example 9-5], the maximal effect (Emax) in experiment [1] came to 59%; in experiment [2], 49%. In addition, the EC50 in experiment [1] is 62 nM; in experiment [2] (setting [3]), 2360 nM.

For orientation: Emax means the maximal effect, on the per cent scale that the assay sets.
